How the values were obtained:
[1] = test system: CHO cells (wild‐type APP); assay: Cellular Aβ40 release assay; type: cell-based; details: Cricetulus griseus, inhibition of Aβ40 release, six batches, each in triplicate
Procedure: (§1) Cellular Aβ release assays were done in CHO cells stably transfected with human wild‐type and human APP were done as described (Neumann et al, 2015). Determinations of logD, pKa, and binding to brain homogenates were done internally at Novartis, Basel. Plasma protein binding was determined by equilibrium dialysis using diluted plasma from the corresponding species. MDR‐1‐MDCK cells were obtained from Prof. A. Berns, Netherlands Cancer Institute, Amsterdam NL, and bi‐directional transport measurements were done as described (Rueeger et al, 2011). Receptor binding assays were done against an internal receptor panel and externally at Ricerca Biosciences, Peitou, Taiwan. In vitro binding and cellular patch clamp assays for hERG were done at Preclinical Safety, Novartis, Basel.

[2] = test system: CHO cells (“Swedish” APP); assay: Cellular Aβ40 release assay; type: cell-based; details: Cricetulus griseus, inhibition of Aβ40 release, three batches, triplicates
Procedure: as §1

[3] = test system: rats; assay: Long-term toxicology studies in rats; type: in vivo, rat
Procedure: In vivo animal toxicity studies were performed according to ICH guidance for industry M3(R2) and conformed to the Institutional Animal Care and Use Guidelines for the contract laboratory and sponsor. […] Recovery was assessed after a 12‐week treatment‐free period. Beagle dogs from Marshall BKU UK, 11 months of age, were given 0 (vehicle), 5, 15, or 30 mg/kg/day for 39 weeks. Vehicle consisted of 0.5% (w/v) methylcellulose (1,500 cPS) in 0.1% (v/v) polysorbate 80 (Tween®‐80) in reverse osmosis water. At necropsy, tissues were immersion fixed in 10% neutral‐buffered formalin or modified Davidson's solution and then processed by routine methods to paraffin block and hematoxylin–eosin (H&E)‐stained histologic slides.

[4] = test system: healthy participants ≥ 60 years; assay: Adverse events after single dose (Appendix Table S5); type: in vivo, human
Source text: (§2) For further details, see the Appendix Table S10 in Appendix and the accompanying clinical protocols synopsis (Appendix Table S11).
(§3) Appendix Table S3. Overview of completed clinical studies with CNP520
(§4) Study description Population No. of Participants Dose/Frequency […]
(§5) First-in-human, randomized, 18-55 yrs 38 / 14 Single dose (10, 30, 90, […]
(§6) controlled, single and multiple CNP520 vs placebo) ascending oral dose study to Single dose (10, 90, 300,

[5] = test system: healthy participants ≥ 60 years; assay: Adverse events after once-daily dosing over two weeks (Appendix Table S7); type: in vivo, human
Source text: as §2, §3, §4, §5, §6

[6] = biological target: Lipoxygenase 5-LO (Homo sapiens, UniProt P09917); assay: Receptor panel; type: biochemical; details: read-out: Inhibition at 10 µM
Procedure: as §1

[7] = test system: healthy participants ≥ 60 years; assay: Adverse events after once-daily dosing over two weeks (Appendix Table S7); type: in vivo, human; remark: listed apart in the source

Lipoxygenase 5-LO, sequence (P09917 whole entry): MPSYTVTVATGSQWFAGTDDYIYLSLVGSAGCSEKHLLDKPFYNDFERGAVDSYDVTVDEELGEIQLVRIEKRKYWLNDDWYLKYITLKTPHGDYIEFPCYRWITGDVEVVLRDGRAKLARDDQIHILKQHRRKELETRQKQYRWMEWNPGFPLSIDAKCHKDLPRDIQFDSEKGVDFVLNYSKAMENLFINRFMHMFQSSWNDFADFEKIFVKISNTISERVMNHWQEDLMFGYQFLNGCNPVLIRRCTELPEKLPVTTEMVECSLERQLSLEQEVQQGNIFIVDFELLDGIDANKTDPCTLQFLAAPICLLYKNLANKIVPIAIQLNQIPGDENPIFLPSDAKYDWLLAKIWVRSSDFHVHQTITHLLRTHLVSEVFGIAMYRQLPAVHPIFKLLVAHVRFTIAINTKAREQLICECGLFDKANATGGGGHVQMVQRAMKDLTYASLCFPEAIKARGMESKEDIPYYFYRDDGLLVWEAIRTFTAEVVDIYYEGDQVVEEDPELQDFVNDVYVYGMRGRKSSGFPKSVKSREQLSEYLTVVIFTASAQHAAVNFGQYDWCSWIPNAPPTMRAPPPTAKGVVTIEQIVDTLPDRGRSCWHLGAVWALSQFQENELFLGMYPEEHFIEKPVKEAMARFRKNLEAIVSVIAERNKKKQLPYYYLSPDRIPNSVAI

## C[C@@]1(c2nc(NC(=O)c3ncc(C(F)(F)F)cc3Cl)ccc2F)CO[C@@](C)(C(F)(F)F)C(N)=N1 [CNP520]
[1]
  IC50: 2.8 ± 0.2 nM
[2]
  IC50: 44 ± 0.4 nM
[3]; female rats
  dose with delayed ovulation and slightly reduced fecundity and fertility indices: ≥ 30 mg/kg/day
  safety margin: exposure at NOAEL vs exposure at 85 mg in Phase IIa: ≥ 7 fold
[3]; female rats at ≥ 30 mg/kg/day, 90% in control animals
  fecundity and fertility indices: 74%
[3]; male rats
  safety margin: exposure at NOAEL vs exposure at 85 mg in Phase IIa: ≥ 5 fold
[3]; male rats, long-term toxicology
  dose with adverse (CNS/clinical) effects: ≥ 500 mg/kg/day
[4]; single dose 10 mg, N = 6
  AE incidence: Ear and labyrinth disorders: 0 (0.0) n (%)
  AE incidence: Eye disorders: 0 (0.0) n (%)
  AE incidence: Gastrointestinal disorders: 1 (16.7) n (%)
  AE incidence: General disorders and administration site conditions: 1 (16.7) n (%)
  AE incidence: Infections and infestations: 0 (0.0) n (%)
  AE incidence: Injury, poisoning and procedural complications: 0 (0.0) n (%)
  AE incidence: Metabolism and nutrition disorders: 1 (16.7) n (%)
  AE incidence: Nervous system disorders: 2 (33.3) n (%)
  AE incidence: Psychiatric disorders: 0 (0.0) n (%)
  AE incidence: Respiratory, thoracic and mediastinal disorders: 0 (0.0) n (%)
  AE incidence: Vascular disorders: 0 (0.0) n (%)
  Participants with at least one AE: 5 (83.3) n (%)
[4]; single dose 90 mg, N = 6
  AE incidence: Ear and labyrinth disorders: 0 (0.0) n (%)
  AE incidence: Eye disorders: 1 (16.7) n (%)
  AE incidence: Gastrointestinal disorders: 0 (0.0) n (%)
  AE incidence: General disorders and administration site conditions: 0 (0.0) n (%)
  AE incidence: Infections and infestations: 0 (0.0) n (%)
  AE incidence: Injury, poisoning and procedural complications: 0 (0.0) n (%)
  AE incidence: Metabolism and nutrition disorders: 0 (0.0) n (%)
  AE incidence: Nervous system disorders: 1 (16.7) n (%)
  AE incidence: Psychiatric disorders: 1 (16.7) n (%)
  AE incidence: Respiratory, thoracic and mediastinal disorders: 0 (0.0) n (%)
  AE incidence: Vascular disorders: 1 (16.7) n (%)
  Participants with at least one AE: 3 (50.0) n (%)
[4]; single dose 300 mg, N = 8
  AE incidence: Ear and labyrinth disorders: 1 (12.5) n (%)
  AE incidence: Eye disorders: 0 (0.0) n (%)
  AE incidence: Gastrointestinal disorders: 0 (0.0) n (%)
  AE incidence: General disorders and administration site conditions: 0 (0.0) n (%)
  AE incidence: Infections and infestations: 0 (0.0) n (%)
  AE incidence: Injury, poisoning and procedural complications: 0 (0.0) n (%)
  AE incidence: Metabolism and nutrition disorders: 0 (0.0) n (%)
  AE incidence: Nervous system disorders: 2 (25.0) n (%)
  AE incidence: Psychiatric disorders: 0 (0.0) n (%)
  AE incidence: Respiratory, thoracic and mediastinal disorders: 0 (0.0) n (%)
  AE incidence: Vascular disorders: 0 (0.0) n (%)
  Participants with at least one AE: 6 (75.0) n (%)
[4]; single dose 750 mg, N = 9
  AE incidence: Ear and labyrinth disorders: 0 (0.0) n (%)
  AE incidence: Eye disorders: 0 (0.0) n (%)
  AE incidence: Gastrointestinal disorders: 2 (22.2) n (%)
  AE incidence: General disorders and administration site conditions: 1 (11.1) n (%)
  AE incidence: Infections and infestations: 0 (0.0) n (%)
  AE incidence: Injury, poisoning and procedural complications: 3 (33.3) n (%)
  AE incidence: Metabolism and nutrition disorders: 0 (0.0) n (%)
  AE incidence: Nervous system disorders: 3 (33.3) n (%)
  AE incidence: Psychiatric disorders: 0 (0.0) n (%)
  AE incidence: Respiratory, thoracic and mediastinal disorders: 0 (0.0) n (%)
  AE incidence: Vascular disorders: 0 (0.0) n (%)
  Participants with at least one AE: 8 (88.9) n (%)
[5]; 10 mg once daily, N = 9
  AE incidence: Respiratory, thoracic and mediastinal disorders: 1 (11.1) n (%)
  Participants with any AE(s): 6 (66.7) n (%)
[5]; 30 mg once daily, N = 9
  AE incidence: Renal and urinary disorders: 0 (0.0) n (%)
[5]; 300 mg once daily, N = 8
  AE incidence: Ear and labyrinth disorders: 0 (0.0) n (%)
[6]
  inhibition at 10 µM: 66%
[7]; 10 mg once daily, N = 9
  AE incidence: Ear and labyrinth disorders: 0 (0.0) n (%)
  AE incidence: Eye disorders: 1 (11.1) n (%)
  AE incidence: Gastrointestinal disorders: 3 (33.3) n (%)
  AE incidence: General disorders and administration site conditions: 0 (0.0) n (%)
  AE incidence: Infections and infestations: 2 (22.2) n (%)
  AE incidence: Metabolism and nutrition disorders: 0 (0.0) n (%)
  AE incidence: Nervous system disorders: 4 (44.4) n (%)
  AE incidence: Psychiatric disorders: 1 (11.1) n (%)
  AE incidence: Renal and urinary disorders: 0 (0.0) n (%)
  AE incidence: Skin and subcutaneous tissue disorders: 0 (0.0) n (%)
[7]; 30 mg once daily, N = 9
  AE incidence: Ear and labyrinth disorders: 1 (11.1) n (%)
  AE incidence: Eye disorders: 0 (0.0) n (%)
  AE incidence: Gastrointestinal disorders: 2 (22.2) n (%)
  AE incidence: General disorders and administration site conditions: 1 (11.1) n (%)
  AE incidence: Infections and infestations: 2 (22.2) n (%)
  AE incidence: Metabolism and nutrition disorders: 0 (0.0) n (%)
  AE incidence: Nervous system disorders: 0 (0.0) n (%)
  AE incidence: Psychiatric disorders: 0 (0.0) n (%)
  AE incidence: Respiratory, thoracic and mediastinal disorders: 0 (0.0) n (%)
  AE incidence: Skin and subcutaneous tissue disorders: 0 (0.0) n (%)
  Participants with any AE(s): 5 (55.6) n (%)
[7]; 90 mg once daily, N = 9
  AE incidence: Ear and labyrinth disorders: 0 (0.0) n (%)
  AE incidence: Eye disorders: 1 (11.1) n (%)
  AE incidence: Gastrointestinal disorders: 3 (33.3) n (%)
  AE incidence: General disorders and administration site conditions: 0 (0.0) n (%)
  AE incidence: Infections and infestations: 2 (22.2) n (%)
  AE incidence: Metabolism and nutrition disorders: 0 (0.0) n (%)
  AE incidence: Nervous system disorders: 1 (11.1) n (%)
  AE incidence: Psychiatric disorders: 0 (0.0) n (%)
  AE incidence: Renal and urinary disorders: 1 (11.1) n (%)
  AE incidence: Respiratory, thoracic and mediastinal disorders: 1 (11.1) n (%)
  AE incidence: Skin and subcutaneous tissue disorders: 0 (0.0) n (%)
  Participants with any AE(s): 6 (66.7) n (%)
[7]; 300 mg once daily, N = 8
  AE incidence: Eye disorders: 0 (0.0) n (%)
  AE incidence: Gastrointestinal disorders: 2 (25.0) n (%)
  AE incidence: General disorders and administration site conditions: 1 (12.5) n (%)
  AE incidence: Infections and infestations: 0 (0.0) n (%)
  AE incidence: Metabolism and nutrition disorders: 2 (25.0) n (%)
  AE incidence: Nervous system disorders: 3 (37.5) n (%)
  AE incidence: Psychiatric disorders: 0 (0.0) n (%)
  AE incidence: Renal and urinary disorders: 1 (12.5) n (%)
  AE incidence: Respiratory, thoracic and mediastinal disorders: 0 (0.0) n (%)
  AE incidence: Skin and subcutaneous tissue disorders: 2 (25.0) n (%)
  Participants with any AE(s): 6 (75.0) n (%)

Reference: article PMC6220303 (EMBO Molecular Medicine, 2018)
